Source: the supplement of paper PMC10307832

What was measured:
Assay in all cases: relative viability (nuclei count vs DMSO), 5 days (fraction); higher = more cells survive
Linsitinib + OSI-027 = compound: C[C@]1(O)C[C@@H](c2nc(-c3ccc4ccc(-c5ccccc5)nc4c3)c3c(N)nccn32)C1 [Linsitinib] + COc1cccc2cc(-c3nc([C@H]4CC[C@H](C(=O)O)CC4)n4ncnc(N)c34)[nH]c12 [OSI-027] (partner 0.5 µM)
Method in brief: (§1)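 Lung cancer cell lines in 1536-well plates got either a single drug or a fixed anchor-drug dose together with five library-drug doses (not always all listed) in √10 steps, by pin tool, on the day after seeding. Nuclei were counted after 5 days, and relative viability is the treated-to-vehicle ratio of nuclei counts. Values are medians of duplicate plates.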

Ispinesib + Linsitinib = compound: Cc1ccc(C(=O)N(CCCN)[C@@H](c2nc3cc(Cl)ccc3c(=O)n2Cc2ccccc2)C(C)C)cc1 [Ispinesib] + C[C@]1(O)C[C@@H](c2nc(-c3ccc4ccc(-c5ccccc5)nc4c3)c3c(N)nccn32)C1 [Linsitinib] (partner 1 µM)
Method in brief: as §1

Linsitinib + Tozasertib = compound: C[C@]1(O)C[C@@H](c2nc(-c3ccc4ccc(-c5ccccc5)nc4c3)c3c(N)nccn32)C1 [Linsitinib] + Cc1cc(Nc2cc(N3CCN(C)CC3)nc(Sc3ccc(NC(=O)C4CC4)cc3)n2)n[nH]1 [Tozasertib] (partner 0.1 µM)
Method in brief: as §1

Ispinesib + Bortezomib = compound: Cc1ccc(C(=O)N(CCCN)[C@@H](c2nc3cc(Cl)ccc3c(=O)n2Cc2ccccc2)C(C)C)cc1 [Ispinesib] + CC(C)C[C@H](NC(=O)[C@H](Cc1ccccc1)NC(=O)c1cnccn1)B(O)O [Bortezomib] (partner 0.002 µM)
Method in brief: as §1

Cell Line	relative viability (Linsitinib + OSI-027; first compound 0.01 µM)	relative viability (Linsitinib + OSI-027; first compound 0.03162 µM)	relative viability (Linsitinib + OSI-027; first compound 0.1 µM)	relative viability (Linsitinib + OSI-027; first compound 1 µM)	relative viability (Ispinesib + Linsitinib; first compound 0.001 µM)	relative viability (Ispinesib + Linsitinib; first compound 0.003162 µM)	relative viability (Ispinesib + Linsitinib; first compound 0.01 µM)	relative viability (Ispinesib + Linsitinib; first compound 0.03162 µM)	relative viability (Ispinesib + Linsitinib; first compound 0.1 µM)	relative viability (Linsitinib + Tozasertib; first compound 0.01 µM)	relative viability (Linsitinib + Tozasertib; first compound 0.03162 µM)	relative viability (Linsitinib + Tozasertib; first compound 0.1 µM)	relative viability (Linsitinib + Tozasertib; first compound 1 µM)	relative viability (Ispinesib + Bortezomib; first compound 0.001 µM)	relative viability (Ispinesib + Bortezomib; first compound 0.003162 µM)	relative viability (Ispinesib + Bortezomib; first compound 0.01 µM)	relative viability (Ispinesib + Bortezomib; first compound 0.03162 µM)	relative viability (Ispinesib + Bortezomib; first compound 0.1 µM)	relative viability (Linsitinib + OSI-027; first compound 0.3162 µM)	relative viability (Linsitinib + Tozasertib; first compound 0.3162 µM)
NCI-H3122	0.994	0.868	1.03	0.487	1.07	1.09	1.07	1.13	0.251	0.458	0.373	0.437	0.425	1.07	0.945	1.09	1.06	0.202		
PC-3 [JPC-3]	0.709	0.79	0.664	0.463	0.937	0.917	0.949	0.989	1.03	0.87	0.911	0.904	0.793	0.796	0.869	0.903	0.763	0.297	0.651	0.777
PC-14	0.746	0.706	0.798	0.546	1.08	1.13	1.1	0.862	0.17	0.559	0.542	0.578	0.427	0.859	1.01	0.962	0.71	0.0916	0.568	0.486
RERF-LC-KJ	0.617	0.602	0.553	0.251	1.01	0.855	1.02	0.819	0.244	0.508	0.558	0.573	0.441	1.05	1.16	1.09	0.905	0.597	0.298	0.523
SK-LU-1	0.338		0.295	0.197	1.15	1.32	1.43	0.932	0.382	0.357		0.383	0.243	1.32	1.39	1.48	0.585	0.461	0.221	0.203
SW 1573	0.772	0.524	0.502	0.282	0.934	0.743	0.983	0.801	0.453	0.213	0.171	0.189	0.136	1.07	1.05	1.42	0.929	0.304	0.393	0.186
